{"source": "patent EP4772500A1", "about": "“NOVEL ISOXAZOLE COMPOUND AS TM4SF5-SPECIFIC INHIBITOR AND USE THEREOF” (Seoul National University R&DB Foundation, priority 2023, dated 2025)", "system": "SNU449T7 cells", "test": "Liver-orthotopic xenograft model of TM4SF5-expressing cell line", "type": "in vivo, BALB/c-Nude mice", "protocol": "The next day, the cells were detached by treating with a T/E (Trypsin/EDTA) solution and centrifuged at 150x g for 3 minutes to obtain a pellet. Thereafter, the supernatant was removed, leaving only the pellet. After mixing with matrigel matrix (CORNING) such that the final concentration of EGF was 50 ng/µl, the cell pellet was prepared by resuspension in the mixture of EGF and matrigel. Then, 5x10^5 cells/20 µl were directly injected once into the liver of 6-week-old male BALB/c-Nude mice. At this time, the animals were anesthetized by inhalation with […] isoflurane and injected. From one week after the cell injection, drug ST-5-002 was intraperitoneally injected at 5 mg/kg twice a week. After injecting the drug for a total of 6 times over 3 weeks, the animals were sacrificed at the 4th week of cell injection, and liver tissues were obtained and analyzed.\n(a-d) A liver-orthotopic xenograft model was established by directly injecting 5x10^5 SNU449T7 cells into the livers of 6-week-old male BALB/c-Nude mice (n=9), which are deficient in T and B cells but still capable of activating NK cell functions. Starting one week after the cell injection, the drug ST-5-002 was intraperitoneally injected at 5 mg/kg twice a week (a). After a total of 6 injections over 3 weeks, the animals were sacrificed at the 4th week of cell injection, and liver tissues were obtained and images of the livers were taken (b). Body weight was measured every week during the drug injections. Meanwhile, although cancer formation occurred in several places in the liver tissue, the cancer masses were […], and since it was practically difficult to measure the size or volume of small cancer masses due to time constraints for tissue specimen processing, the volume of the largest cancer mass was measured for each liver tissue. The tumor volumes calculated from n=7 liver tissues, excluding the maximum and minimum values, are shown (c). (d) For a portion of the liver tissues, the expression level, distribution, and localization of each factor, as well as the degree of damage to the liver cancer tissue, were confirmed through immunohistochemistry or H&E staining for the given protein factors.\n(a-b) As in FIG. 20, a liver-orthotopic xenograft model was established by directly injecting 5x10^5 SNU449T7 cells into the livers of 6-week-old male BALB/c-Nude mice (n=9), which are deficient in T and B cells but still capable of activating NK cell functions. Starting one week after the cell injection, the drug ST-5-002 was intraperitoneally injected at 5 mg/kg twice a week. (b-d) After the end of the experiment, for a portion of the obtained liver tissues, the expression level, distribution, and localization of SLAMF7, SLAMF6, NKG2D, PD-L1, and PD-1 factors, as well as the degree of liver cancer tissue, were confirmed through immunohistochemistry.", "key": {"[1]": {"details": "mouse xenograft experiment, liver tissue extracts, Western blotting (FIG. 13e)"}}, "data": [{"molecule": "Cc1ccc(C(=O)Nc2ccc(-c3cc(-c4ccc(O)cc4)no3)cc2)cc1", "note": "[ST-5-002, N-(4-(3-(4-hydroxyphenyl)isoxazole-5-yl)phenyl)-4-methylbenzamide]", "values": [{"measurement": "inhibitory effect on liver cancer formation", "setting": "5 mg/kg IP twice a week, 6 times, images (FIG. 20b)", "result": "distinct"}, {"measurement": "distribution of cells highly expressing PD-L1", "setting": "immunohistochemistry (FIG. 22e)", "result": "scattered and distributed at a low level inside the tumor"}, {"measurement": "infiltration of PD-1-expressing cells", "setting": "immunohistochemistry (FIG. 22d)", "result": "scattered and distributed without restriction"}, {"measurement": "expressions of Ki67, AFP, F4/80, CCL2 and CCL20, and laminin γ2", "setting": "immunohistochemistry of liver tissue (FIG. 20d)", "result": "significantly lower"}, {"measurement": "distribution of cells highly expressing SLAMF7", "setting": "immunohistochemistry, interface of small tumors (FIG. 22b)", "result": "infiltrated and were distributed or localized inside the tumor"}, {"measurement": "degree of staining for SLAMF6 and NKG2D", "setting": "immunohistochemistry, small cancerous areas (FIG. 22c)", "result": "further increased inside the tumor area"}, {"measurement": "tumor volume", "setting": "largest cancer mass per liver, 28th day, vs vehicle (FIG. 20c)", "result": "significantly reduced"}, {"measurement": "SLAMF6 expression", "setting": "[1]", "result": "increased"}, {"measurement": "TIGIT expression level", "setting": "[1]", "result": "lowered"}]}]}
